Here are results for five compounds from patent publication US11542266B1, “Substituted piperidines as BTK inhibitors” (HAISCO PHARMACEUTICALS PTE. LTD., priority 2019, dated 2023).

For one data set, the system named is Mino cells. Description: Inhibition of cell proliferation, Mino cells (Cell Viability Assay, 72 h). The format is cell-based, human. The note with it: Homo sapiens. The method in brief: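 RPMI1640 + 10% FBS cultures seeded at 20000/well (SU-DHL-4) or 5000/well (Mino, SU-DHL-6), exposed to compound dilutions in triplicate for 72 h at 37 °C, 5% CO2, DMSO vehicle control. Viability read by luminescent reagent; IC50 from dose-response and Max inhi. % = (1 − T72 treated/T72 vehicle)×100 at top concentration.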

In the next data set the test system is SU-DHL-4 cells. Description: Inhibition of cell proliferation, SU-DHL-4 cells (Cell Viability Assay, 72 h). The note with it: Homo sapiens. The format is cell-based, human. The protocol: (§1) SU-DHL-4, Mino, and SU-DHL-6 cells, in the culture medium of RPMI1640+10% FBS, were cultured in an incubator at 37° C. under 5% CO2. Cells were plated in a 96-well plate. Specifically, SU-DHL-4 cells were at 20000/well, Mino and SU-DHL-6 cells were at 5000/well, with 90 μL/well. 10 μL of the compounds at different concentrations were added to each well. There were 3 replicate wells for each concentration, and the last column, added with DMSO, was used as a vehicle control group. The cultures were continued for 72 hours at 37° C. under 5% CO2. After 72 hours, 100 μL of detection reagent (Cell Viability Assay, Promega, G7573) was added to each well, and the cultures were uniformly mixed for 2 minutes, and incubated at room temperature for 10 minutes. The fluorescence signal value was measured with a microplate reader (PHERAstar FSX). The IC50 value of the compound on cell proliferation inhibition was calculated using Origin 9.2 software, and the inhibition rate at the highest concentration of the compound (Max inhi. %) was calculated according to formula (1). Max inhi. %=(1-T72 administration/T72 vehicle)×100 Formula (1).

The subject of another data set is SU-DHL-6 cells. Description: Inhibition of cell proliferation, SU-DHL-6 cells (Cell Viability Assay, 72 h). The note with it: Homo sapiens. In kind it is cell-based. Here is the method: as §1
Data set [1] can be described thus: Pharmacokinetic experiment in rats (i.g. vehicle DMSO/Solutol/PEG-400/SBE-β-CD). The note with it: Sprague-Dawley (SD), rat, plasma, po, male SD rats; for bioavailability: i.g. 20 mg/kg (DMSO/Solutol/PEG-400/SBE-β-CD) vs i.v. 5 mg/kg; for AUC(0-t): i.g. 20 mg/kg, vehicle 5% DMSO + 5% Solutol + 30% PEG-400 + 60% (20%SBE-β-CD). The format is in vivo. Here is the method:
Objective: In this experiment, a single dose of each test compound was administered to SD rats intravenously and intragastrically, the concentrations of the test compound in plasma of rats were measured, and the pharmacokinetic characteristics and bioavailability of the test compound in rats were evaluated.
Experimental animals: Male SD rats, 200-250 g, 6-8 weeks old, 6 rats/compound. The experimental animals were purchased from CHENGDU DOSSY EXPERIMENTAL ANIMALS CO., LTD.
Experimental method: On the day of the experiment, 6 SD rats were randomly grouped according to their body weight. The animals were fasted with water available for 12 to 14 hours one day before the administration of a test compound, and were fed 4 hours after the administration.
Sampling: Before and after the administration, 0.1 mL of blood was taken from the orbit of the rats under isoflurane anesthesia, and placed in an EDTAK2 centrifuge tube. Centrifugation was carried out at 5000 rpm at 4° C. for 10 min and the plasma was collected.
Time points for plasma collection in G1 group: 0, 5 min, 15 min, 30 min, 1 h, 2 h, 4 h, 6 h, 8 h, and 24 h.
Time points for plasma collection in G2 group: 0, 15 min, 30 min, 1 h, 2 h, 4 h, 6 h, 8 h, and 24 h.
Before analysis and detection, all samples were stored at −80° C. The samples were analyzed quantitatively by LC-MS/MS.

Consider `Nc1ncnc2c1c(-c1ccc(Oc3ccccc3)cc1)nn2[C@@H]1CCN(C2CN(C3CN(c4ccc5c(c4)C(=O)N(C4CCC(=O)NC4=O)C5=O)C3)C2)C[C@@H]1F` (stereo partly drawn) [Compound 38, 5-[3-[3-[(3S,4R)-4-[4-amino-3-(4-phenoxyphenyl)pyrazolo[3,4-d]pyrimidin-1-yl]-3-fluoro-1-piperidyl]azetidin-1-yl]azetidin-1-yl]-2-(2,6-dioxo-3-piperidyl)isoindoline-1,3-dione], for which the IC50 in the data set with Mino cells was 0.081 µM; in the data set on SU-DHL-4 cells it was 0.469 µM; in the data set with SU-DHL-6 cells, 0.888 µM. For the same compound, the bioavailability in data set [1] amounted to 13.3 ± 5.2%. In addition, the AUC(0-t) in data set [1] worked out at 7260 ± 2860 ng·h/mL.

With `Nc1ncnc2c1c(-c1ccc(Oc3ccccc3)cc1)nn2[C@H]1CCN(C2CN(C3CN(c4ccc5c(c4)C(=O)N(C4CCC(=O)NC4=O)C5=O)C3)C2)C[C@H]1F` (stereo partly drawn) [Compound 41, 5-(3-((3R,4S)-4-(4-amino-3-(4-phenoxyphenyl)-1H-pyrazolo[3,4-d]pyrimidin-1-yl)-3-fluoropiperidin-1-yl)-[1,3′-biazetidin]-1′-yl)-2-(2,6-dioxopiperidin-3-yl)isoindoline-1,3-dione], the half-maximal inhibitory concentration (IC50) was 0.0103 µM in the data set with Mino cells, 0.329 µM with SU-DHL-4 cells and 0.67 µM in the data set with SU-DHL-6 cells. In data set [1], this compound showed a bioavailability of 10.8 ± 1.5%. Moreover, the AUC(0-t) in data set [1] came out at 7910 ± 1100 ng·h/mL.

In turn, `Nc1ncnc2c1c(-c1ccc(Oc3ccccc3)cc1)nn2[C@H]1CCN(C2CCN(C3CN(c4ccc5c(c4)C(=O)N(C4CCC(=O)NC4=O)C5=O)C3)CC2)C[C@@H]1F` (stereo partly drawn) [Compound 44, 5-(3-((3S,4S)-4-(4-amino-3-(4-phenoxyphenyl)-1H-pyrazolo[3,4-d]pyrimidin-1-yl)-3-fluoro-[1,4′-bipiperidin]-1′-yl)azetidin-1-yl)-2-(2,6-dioxopiperidin-3-yl)isoindoline-1,3-dione] gave an IC50 in the data set with Mino cells of 0.015 µM. Further, in data set [1], the bioavailability was determined as 5.73 ± 0.64% and the AUC(0-t) was determined as 877 ± 98 ng·h/mL.

For the compound `Nc1ncnc2c1c(-c1ccc(Oc3ccccc3)cc1)nn2[C@@H]1CCN(C2CN(C3CN(c4ccc5c(c4)C(=O)N(C4CCC(=O)NC4=O)C5=O)C3)C2)C[C@H]1F` (stereo partly drawn) [Compound 39, 5-(3-((3R,4R)-4-(4-amino-3-(4-phenoxyphenyl)-1H-pyrazolo[3,4-d]pyrimidin-1-yl)-3-fluoropiperidin-1-yl)-[1,3′-biazetidin]-1′-yl)-2-(2,6-dioxopiperidin-3-yl)isoindoline-1,3-dione], the IC50 with Mino cells worked out at 0.041 µM. Moreover, in data set [1], the bioavailability came to 9.1 ± 1.5% and the AUC(0-t) was 2830 ± 474 ng·h/mL.

For the compound `Nc1ncnc2c1c(-c1ccc(Oc3ccccc3)cc1)nn2[C@H]1CCN(C2CN(C3CN(c4ccc5c(c4)C(=O)N(C4CCC(=O)NC4=O)C5=O)C3)C2)C[C@@H]1F` (stereo partly drawn) [Compound 43, 5-[3-[3-[(3S,4S)-4-[4-amino-3-(4-phenoxyphenyl)pyrazolo[3,4-d]pyrimidin-1-yl]-3-fluoro-1-piperidyl]azetidin-1-yl]azetidin-1-yl]-2-(2,6-dioxo-3-piperidyl)isoindoline-1,3-dione], the figures for the IC50 in the data set with Mino cells, with SU-DHL-4 cells and with SU-DHL-6 cells were 0.01 µM, 0.33 µM and 0.407 µM, respectively. This compound yielded a bioavailability in data set [1] of 11 ± 2.2%. In addition, the AUC(0-t) in data set [1] worked out at 4500 ± 886 ng·h/mL.
